Reference: patent US20140370084A1, “ESTRADIOL FORMULATIONS AND THERAPIES” (TherapeuticsMD, Inc., priority 2013, published 2014)

Assay: Particle size analysis of micronized progesterone API (Beckman Device, ULM)
Format: physicochemical
Conditions: sample API, Fraunhofer optical model
Description: Particle size may be determined in any suitable manner. For example, a Beckman Coulter LS 13 320 Laser Diffraction Particle Size Analyzer (the “Beckman Device”) may be used to determine particle size. As described above, particle size may be represented by various metrics, for example, through an X50 particle size, and/or X90 particle size, or similar descriptions of particle size.
The Beckman Device may be used with various modules for introducing a sample for analysis. The Beckman Device may be used with the LS 13 320 Universal Liquid Module (“ULM”). The ULM is capable of suspending samples in the size range of 0.017 μm to 2000 μm. The ULM is a liquid based module that allows for delivery of the sample to the sensing zone. The ULM recirculates the sample through the Beckman Device. The ULM comprises two hoses, one for fluid delivery and another for waste. The total volume used may be 125 mL or less. A sample mass of from about 1 mg to about 10 g may be used. The ULM may interact with the Beckman Device via pins that fit into slots on the ULM. The ULM may use a variety of suspension fluids, for example, water, butonol, ethanol, chloroform, heptanes, toluene, propanol, COULTER Type 1B Dispersant (“Coulter 1B”), and a variety of other suspension fluids. Surfactants may also be used, though pump speed should be adjusted to prevent excessive bubbling. […]

For `CC(=O)[C@H]1CC[C@H]2[C@@H]3CCC4=CC(=O)CC[C@]4(C)[C@H]3CC[C@]12C` [Progesterone, progesterone], the X25 was 1.590 μm and the X75 was 7.442 μm.
